We go through 28 compounds from US4623662A, “Antiatherosclerotic ureas and thioureas” (American Cyanamid Company, priority 1985, dated 1986).

Like-named read-outs stand apart in the source and are kept apart here.

The target in experiment [1] is T1, fatty acyl CoA: cholesterol acyl transferase (ACAT) (Rattus norvegicus, UniProt O70536).
T1 construct: The supernatant, containing the microsomal fraction, served as the source of the cholesterol-esterifying enzyme; from tissue; host or cells: rat adrenals, supernatant of 1,000 x g centrifugation containing the microsomal fraction
T1 sequence (O70536 1-545): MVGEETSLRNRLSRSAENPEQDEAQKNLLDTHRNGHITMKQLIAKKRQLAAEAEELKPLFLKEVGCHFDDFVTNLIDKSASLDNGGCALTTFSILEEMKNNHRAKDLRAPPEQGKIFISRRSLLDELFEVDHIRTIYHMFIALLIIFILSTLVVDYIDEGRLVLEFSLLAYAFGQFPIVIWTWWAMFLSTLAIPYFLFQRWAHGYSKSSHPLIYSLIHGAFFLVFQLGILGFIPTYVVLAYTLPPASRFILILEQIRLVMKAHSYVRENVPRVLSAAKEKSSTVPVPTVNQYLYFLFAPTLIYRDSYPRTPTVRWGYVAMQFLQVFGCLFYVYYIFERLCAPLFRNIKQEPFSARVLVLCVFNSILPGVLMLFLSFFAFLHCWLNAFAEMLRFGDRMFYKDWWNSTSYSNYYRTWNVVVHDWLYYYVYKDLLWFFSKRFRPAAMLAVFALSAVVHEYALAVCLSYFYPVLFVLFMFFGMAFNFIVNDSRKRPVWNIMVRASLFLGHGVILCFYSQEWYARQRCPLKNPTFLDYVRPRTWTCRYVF
As to the kind of experiment: Inhibition of fatty acyl CoA:cholesterol acyl transferase (ACAT), rat adrenal enzyme. The format is biochemical. As to the method:
The compounds of the present invention were assayed for two types of biological activity related to their potential use as antiatherosclerotic agents. Compounds were tested in vitro for the ability to inhibit the enzyme fatty acyl CoA: cholesterol acyl transferase (ACAT) and in vivo for serum hypolipidemic activity as meausred by the ability to inhibit lipid absorption in rats.
The compounds were tested for their ability to inhibit ACAT according to the following procedure: rat adrenals were homogenized in 0.2M monobasic potassium phosphate buffer, pH 7.4, and centrifuged at 1,000 times gravity for 15 minutes at 5° C. The supernatant, containing the microsomal fraction, served as the source of the cholesterol-esterifying enzyme, fatty acyl CoA:cholesterol acyl transferase (ACAT). A mixture comprising 50 parts of adrenal supernatant, 10 parts of bovine serum albumin (50 mg/ml), 3 parts of test compound (final concentration 5.2 μg/ml), and 500 parts of buffer was preincubated at 37° C. for 10 minutes. After treatment with 20 parts of oleoyl CoA (^14 C-0.4 μCi), the mixture was incubated at 37° C. for 10 minutes. A control mixture, omitting the test compound, was prepared and treated in the same manner. The lipids from the incubation mixture was extracted into an organic solvent and separated by thin-layer chromatography. The cholesteryl ester fraction was counted in a scintillation counter. This procedure is a modification of that described by Hashimoto, et al., Life Scie., 12 (Part II), 1-12 (1973).
Compounds which produced statistically significant inhibition of the ACAT enzyme are considered to be active.
In addition to the above described test and the results given in terms of percent inhibition, various compounds of this invention were tested by the same procedure at several concentrations. The results of this test are given in Table II in terms of IC50 (μM), that concentration which produced 50% inhibition of the ACAT enzyme.

For a further experiment, the system named is cholesterol absorption. As to the kind of experiment: Inhibition of cholesterol absorption in rats fed 1% cholesterol:0.5% cholic acid diet. It is filed as in vivo, male Sprague-Dawley rats. The note with it: po, 336 h, rat, dose .03% of the diet, 2 weeks. The method in brief: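 Compound was mixed into the diet (0.001-0.03%) of male Sprague-Dawley rats, 150-170 g, on a 1% cholesterol/0.5% cholic acid regimen for 2 weeks. At sacrifice, serum cholesterol (enzymatic) and liver neutral-sterol cholesterol were measured; values given as percent of compound-free control rats.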

[2] abbreviates: rat adrenal ACAT, final concentration 5.2 μg/ml, read-out: % Inhibition.
Where [3] appears, read: read-out: LS (liver sterol), percentage of control values.
The mark [4] stands for this setting: read-out: SS (serum sterol), percentage of control values.

Turning to `COc1ccccc1CN(Cc1ccccc1F)C(=O)Nc1ccc(C)cc1C` [1-(2-Fluorobenzyl)-1-(2-methoxybenzyl)-3-(2,4-dimethylphenyl)urea], the inhibition at 5.2 µg/mL in experiment [1] (setting [2]) came out at 41.5%. Also, the results for the response vs control in vivo at 0.03 % in the experiment on cholesterol absorption (setting [3]) and in the experiment on cholesterol absorption (setting [4]) were 20% and 45%, respectively.

`CCCCCCCN(Cc1ccco1)C(=O)Nc1cc(C)c(C)cc1C` [1-(2-Furanylmethyl)-1-heptyl-3-(2,4,5-trimethylphenyl)urea]: the inhibition at 5.2 µg/mL in experiment [1] (setting [2]) was found to be 93.8%. The response vs control in vivo at 0.03 % in the experiment on cholesterol absorption (setting [3]) was 38%; in the experiment with cholesterol absorption (setting [4]), 44%.

On to `CCCCCCCN(Cc1ccco1)C(=O)Nc1c(Cl)cc(Cl)cc1Cl` [1-(2-Furanylmethyl)-1-heptyl-3-(2,4,6-trichlorophenyl)urea], for which the inhibition at 5.2 µg/mL in experiment [1] (setting [2]) was determined as 96.1%. The response vs control in vivo at 0.03 % was 34% in the experiment with cholesterol absorption (setting [3]) and 37% in the experiment with cholesterol absorption (setting [4]).

Compound `CC(C)(C)CCN(Cc1cccs1)C(=O)Nc1c(Cl)cc(Cl)cc1Cl` [1-(3,3-Dimethylbutyl)-1-(2-thienylmethyl)-3-(2,4,6-trichlorophenyl)urea] registered an inhibition at 5.2 µg/mL in experiment [1] of 90%. The response vs control in vivo at 0.03 % in the experiment with cholesterol absorption (setting [3]) came to 56%; in the experiment with cholesterol absorption (setting [4]), 58%.

The compound `CC(C)(C)CCN(Cc1ccc(Cl)cc1)C(=O)Nc1c(Cl)cc(Cl)cc1Cl` [1-(3,3-Dimethylbutyl)-1-(4-chlorobenzyl)-3-(2,4,6-trichlorophenyl)urea] came in with an inhibition at 5.2 µg/mL in experiment [1] of 90%. Besides, the response vs control in vivo at 0.03 % was 41% with cholesterol absorption (setting [3]) and 73% with cholesterol absorption (setting [4]).

As to `Cc1cc(Cl)cc(C)c1NC(=O)N(CCC(C)(C)C)Cc1ccc(Cl)cc1` [1-(3,3-Dimethylbutyl)-1-(4-chlorobenzyl)-3-(4-chloro-2,6-dimethylphenyl)urea], at 5.2 µg/mL the inhibition in experiment [1] was 90%. In addition, the response vs control in vivo at 0.03 % in the experiment with cholesterol absorption (setting [3]) is 25%; in the experiment with cholesterol absorption (setting [4]), 46%.

The compound `Cc1cc(Cl)ccc1NC(=O)N(CCC(C)(C)C)Cc1ccc(Cl)cc1` [1-(3,3-Dimethylbutyl)-1-(4-chlorobenzyl)-3-(4-chloro-2-methylphenyl)urea] registered an inhibition at 5.2 µg/mL in experiment [1] of 90%. Moreover, the response vs control in vivo at 0.03 % in the experiment on cholesterol absorption (setting [3]) is 60%; in the experiment with cholesterol absorption (setting [4]), 50%.

In turn, `Cc1cc(NC(=O)N(CCC(C)(C)C)Cc2ccccc2)c(C)cc1Cl` [1-(3,3-Dimethylbutyl)-1-(benzyl)-3-(4-chloro-2,5-dimethylphenyl)urea] showed an inhibition at 5.2 µg/mL in experiment [1] of 90%. The values for the response vs control in vivo at 0.03 % in the experiment with cholesterol absorption (setting [3]) and with cholesterol absorption (setting [4]) were 30% and 55%, respectively.

Compound `CC(C)(C)CCN(Cc1ccc(CC(C)(C)C)cc1)C(=O)Nc1c(Cl)cc(Cl)cc1Cl` [1-(3,3-Dimethylbutyl)-1-[4-(2,2-dimethylpropyl)benzyl]-3-(2,4,6-trichlorophenyl)urea] gave an inhibition at 5.2 µg/mL in experiment [1] of 90%. In addition, the response vs control in vivo at 0.03 % in the experiment with cholesterol absorption (setting [3]) turned out to be 15%; in the experiment with cholesterol absorption (setting [4]), 32%.

For `CC(C)(C)CCN(Cc1ccccc1)C(=O)Nc1c(F)cc(F)cc1F` [1-Benzyl-1-[3,3-dimethylbutyl]-3-[2,4,6-trifluorophenyl]urea], testing at 5.2 µg/mL in experiment [1] gave an inhibition of 90%.

Turning to `COc1ccc(OC)c(CCN(Cc2cccc(Cl)c2)C(=O)Nc2ccc(C)cc2C)c1` [1-[2-(2,5-Dimethoxyphenyl)ethyl]-1-(3-chlorobenzyl)-3-(2,4-dimethylphenyl)urea], the inhibition at 5.2 µg/mL in experiment [1] (setting [2]) was 97.1%.

In the case of `Cc1ccc(NC(=O)N(CCc2ccccc2Cl)Cc2ccc(C)c(C)c2)c(C)c1` [1-[2-(2-Chlorophenyl)ethyl]-1-(3,4-dimethylbenzyl)-3-(2,4-dimethylphenyl)urea], the inhibition at 5.2 µg/mL in experiment [1] (setting [2]) is 92.8%.

Turning to `Cc1cccc(CN(CCc2ccccc2Cl)C(=O)Nc2ccc(C)cc2C)c1` [1-[2-(2-Chlorophenyl)ethyl]-1-(3-methylbenzyl)-3-(2,4-dimethylphenyl)urea], the inhibition at 5.2 µg/mL in experiment [1] (setting [2]) was 56.1%.

Regarding `Cc1ccc(NC(=O)N(CCc2ccccc2C)Cc2ccc(Br)cc2)c(C)c1` [1-[2-(2-Methylphenyl)ethyl]-1-(4-bromobenzyl)-3-(2,4-dimethylphenyl)urea], the inhibition at 5.2 µg/mL in experiment [1] (setting [2]) amounted to 29.2%.

`COc1ccc(CCN(Cc2ccc(C)c(Cl)c2)C(=O)Nc2ccc(C)cc2C)cc1OC` [1-[2-(3,4-Dimethoxyphenyl)ethyl]-1-(3-chloro-4-methylbenzyl)-3-(2,4-dimethylphenyl)urea]: in experiment [1] (setting [2]), the inhibition at 5.2 µg/mL came out at 53.3%.

In the case of `COc1ccc(CCN(Cc2ccc(F)cc2)C(=O)Nc2ccc(C)cc2C)cc1OC` [1-[2-(3,4-Dimethoxyphenyl)ethyl]-1-(4-fluorobenzyl)-3-(2,4-dimethylphenyl)urea], the inhibition at 5.2 µg/mL in experiment [1] (setting [2]) came out at 57.4%.

For the compound `Cc1ccc(CN(CCc2cccc(F)c2)C(=O)Nc2ccc(C)cc2C)cc1` [1-[2-(3-Fluorophenyl)ethyl]-1-(4-methylbenzyl)-3-(2,4-dimethylphenyl)urea], 5.2 µg/mL produced 80.5% inhibition in experiment [1].

As for `Cc1cccc(CCN(Cc2cccc([N+](=O)[O-])c2)C(=O)Nc2ccc(C)cc2C)c1` [1-[2-(3-Methylphenyl)ethyl]-1-(3-nitrobenzyl)-3-(2,4-dimethylphenyl)urea], in experiment [1] (setting [2]), the inhibition at 5.2 µg/mL stood at 95.7%.

In the case of `Cc1ccc(NC(=O)N(CCc2cccc(C(F)(F)F)c2)Cc2ccccc2Cl)c(C)c1` [1-[2-(3-Trifluoromethylphenyl)ethyl]-1-(2-chlorobenzyl)-3-(2,4-dimethylphenyl)urea], the inhibition at 5.2 µg/mL in experiment [1] (setting [2]) came to 7.8%.

Regarding `CCOc1ccc(CCN(Cc2ccc(C)cc2C)C(=O)Nc2ccc(C)cc2C)cc1` [1-[2-(4-Ethoxyphenyl)ethyl]-1-(2,4-dimethylbenzyl)-3-(2,4-dimethylphenyl)urea], the inhibition at 5.2 µg/mL in experiment [1] (setting [2]) was determined as 34.9%.

For the compound `CCOc1ccc(CCN(Cc2ccccc2Cl)C(=O)Nc2ccc(C)cc2C)cc1` [1-[2-(4-Ethoxyphenyl)ethyl]-1-(2-chlorobenzyl)-3-(2,4-dimethylphenyl)urea], the inhibition at 5.2 µg/mL in experiment [1] (setting [2]) is 94.1%.

`CC(C)(C)CCN(Cc1ccc(CC(C)(C)C)cc1)C(=O)Nc1c(F)cc(F)cc1F` [1-[3,3-dimethylbutyl]-1-[[4-(2,2-dimethylpropyl)phenyl]methyl]-3-[2,4,6-trifluorophenyl]urea] showed an inhibition at 5.2 µg/mL in experiment [1] of 90%.

With `CCCCc1ccc(CN(CCCCCCOS(C)(=O)=O)C(=O)Nc2c(Cl)cc(Cl)cc2Cl)cc1` [1-[(4-Butylphenyl)methyl]-1-[6-(methylsulfonyloxy)-hexyl]-3-(2,4,6-trichlorophenyl)urea], testing at 5.2 µg/mL in experiment [1] gave an inhibition of 90%.

Consider `CCCCc1ccc(CN(CCCCCCO)C(=O)Nc2ccc(C)cc2C)cc1` [1-[(4-Butylphenyl)methyl]-3-(2,4-dimethylphenyl)-1-(6-hydroxyhexyl)urea], for which the inhibition at 5.2 µg/mL in experiment [1] (setting [2]) was 96.8%.

With `CCCCc1ccc(CN(CCOCCO)C(=O)Nc2ccc(C)cc2C)cc1` [1-[(4-Butylphenyl)methyl]-3-(2,4-dimethylphenyl)-1-[2-(2-hydroxyethoxy)ethyl]urea], in experiment [1] (setting [2]), the inhibition at 5.2 µg/mL came out at 74.5%.

For `CCCCc1ccc(CN(CCCCCCOS(C)(=O)=O)C(=O)Nc2ccc(Cl)cc2C)cc1` [1-[(4-Butylphenyl)methyl]-3-(4-chloro-2-methylphenyl)-1-[6-[(methylsulfonyl)oxy]hexyl]urea], the inhibition at 5.2 µg/mL in experiment [1] came out at 90%.

In experiment [1], `CCCCCCCN(Cc1ccc(CCCC)cc1)C(=O)Nc1c(F)cc(F)cc1F` [1-[(4-butylphenyl)methyl]-1-(n-heptyl)-3-[2,4,6-trifluorophenyl]urea] came in with an inhibition at 5.2 µg/mL of 90%.

For the compound `CCCCc1ccc(CN(CCC(C)(C)C)C(=O)Nc2c(F)cc(F)cc2F)cc1` [1-[(4-butylphenyl)methyl]-1-[3,3-dimethylbutyl]-3-[2,4,6-trifluorophenyl]urea], in experiment [1], the inhibition at 5.2 µg/mL was determined as 90%.
